In paper PMC13441234 (2025):

Tests used:
[1] = test system: Phenylalanine aptamer (on 8 nm SiO2 blocking layer) (DNA, aptamer) CGACCGCGTTTCCCAAGAAAGCAAGTATTGGTTGGTCG; experiment: square wave voltammetry, electrochemical aptamer sensor; conditions: 1x PBS, room temperature, 300 Hz, 50 mV amplitude, apparent, immobilised aptamer, n = 3 electrodes
[2] = test system: Phenylalanine aptamer (on gold with alkylthiolate/MCH blocking layer) (DNA, aptamer) CGACCGCGTTTCCCAAGAAAGCAAGTATTGGTTGGTCG; experiment: as above; conditions: 1x PBS (cation concentrations not given); apparent; 300 Hz; immobilised aptamer; whether own (Figure A2) or literature value not explicit

binding constant [1]: 12 µM | binding constant [2]: 400 µM
Compound: N[C@@H](Cc1ccccc1)C(=O)O
